# Values of other authors, collected in patent publication US20030087306A1, “Methods for identifying novel multimeric agents that modulate receptors” (priority 1998, published 2003).
# Where a name gives a salt, the structure may show the parent alone. Read-outs that look alike come from different tables or passages of the source.
# Assays:
# AT2 receptor = biological target: T1, AT2 receptor (Homo sapiens, UniProt P50052)
# T1 sequence (P50052 1-363): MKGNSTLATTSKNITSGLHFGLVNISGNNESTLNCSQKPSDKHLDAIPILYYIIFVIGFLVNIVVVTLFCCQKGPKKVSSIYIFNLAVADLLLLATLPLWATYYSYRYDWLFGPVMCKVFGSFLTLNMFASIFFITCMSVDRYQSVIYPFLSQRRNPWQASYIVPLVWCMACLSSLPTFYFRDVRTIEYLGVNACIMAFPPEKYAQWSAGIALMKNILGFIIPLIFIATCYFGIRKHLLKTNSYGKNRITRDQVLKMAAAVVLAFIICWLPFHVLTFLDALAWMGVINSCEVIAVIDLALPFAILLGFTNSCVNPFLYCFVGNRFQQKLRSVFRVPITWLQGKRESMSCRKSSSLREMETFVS
# [1] = test system: angiotensin II receptor sites; conditions: rat adrenal cortical membranes and cultured rat smooth muscle cells
# β2-adrenergic receptor = β2-adrenergic receptor (Homo sapiens, UniProt P07550); conditions: for duration of action / onset of action (in words): human, in vivo
# β2-adrenergic receptor, sequence (P07550 whole entry): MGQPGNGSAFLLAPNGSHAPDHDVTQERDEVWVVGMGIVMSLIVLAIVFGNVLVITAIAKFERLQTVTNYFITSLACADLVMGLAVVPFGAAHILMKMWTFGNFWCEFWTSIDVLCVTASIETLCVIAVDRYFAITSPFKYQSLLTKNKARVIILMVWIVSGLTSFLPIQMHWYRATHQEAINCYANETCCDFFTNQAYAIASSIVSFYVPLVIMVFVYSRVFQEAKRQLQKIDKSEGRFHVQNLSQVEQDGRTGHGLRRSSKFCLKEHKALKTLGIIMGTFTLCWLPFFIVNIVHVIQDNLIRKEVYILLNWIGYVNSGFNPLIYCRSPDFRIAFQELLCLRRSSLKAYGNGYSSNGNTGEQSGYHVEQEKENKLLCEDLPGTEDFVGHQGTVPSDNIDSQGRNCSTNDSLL
# neuropeptide release = conditions: trigeminal ganglion stimulation in cats
# 5-HT1B binding site = 5-HT1B binding site (Rattus norvegicus, UniProt P28564)
# 5-HT1B binding site, sequence (P28564 whole entry): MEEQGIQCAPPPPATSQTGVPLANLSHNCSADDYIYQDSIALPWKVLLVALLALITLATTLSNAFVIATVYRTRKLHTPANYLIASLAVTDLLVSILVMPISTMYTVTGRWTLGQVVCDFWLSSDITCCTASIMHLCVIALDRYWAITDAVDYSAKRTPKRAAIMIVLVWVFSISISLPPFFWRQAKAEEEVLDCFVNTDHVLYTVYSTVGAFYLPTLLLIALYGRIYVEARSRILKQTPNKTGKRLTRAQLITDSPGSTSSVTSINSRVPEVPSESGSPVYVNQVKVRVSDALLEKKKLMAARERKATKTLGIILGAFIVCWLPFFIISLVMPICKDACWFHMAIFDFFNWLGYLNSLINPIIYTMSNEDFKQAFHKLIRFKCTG
# 5-HT1A binding site = biological target: T2, 5-HT1A binding site (Homo sapiens, UniProt P08908)
# T2 sequence (P08908 1-422): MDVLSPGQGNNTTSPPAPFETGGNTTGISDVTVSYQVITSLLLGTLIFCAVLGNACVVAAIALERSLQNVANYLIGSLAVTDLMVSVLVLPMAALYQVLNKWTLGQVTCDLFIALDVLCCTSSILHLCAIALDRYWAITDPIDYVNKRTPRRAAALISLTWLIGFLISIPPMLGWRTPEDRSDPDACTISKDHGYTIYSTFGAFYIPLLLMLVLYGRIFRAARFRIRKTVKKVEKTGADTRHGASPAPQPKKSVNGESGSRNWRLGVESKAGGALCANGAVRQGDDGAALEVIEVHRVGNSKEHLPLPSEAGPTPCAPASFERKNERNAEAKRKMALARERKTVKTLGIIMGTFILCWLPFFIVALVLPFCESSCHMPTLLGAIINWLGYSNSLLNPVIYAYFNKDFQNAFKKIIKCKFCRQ
# 5-HT1C binding site = biological target: T3, 5-HT1C binding site (Homo sapiens, UniProt P28335)
# T3 sequence (P28335 33-458): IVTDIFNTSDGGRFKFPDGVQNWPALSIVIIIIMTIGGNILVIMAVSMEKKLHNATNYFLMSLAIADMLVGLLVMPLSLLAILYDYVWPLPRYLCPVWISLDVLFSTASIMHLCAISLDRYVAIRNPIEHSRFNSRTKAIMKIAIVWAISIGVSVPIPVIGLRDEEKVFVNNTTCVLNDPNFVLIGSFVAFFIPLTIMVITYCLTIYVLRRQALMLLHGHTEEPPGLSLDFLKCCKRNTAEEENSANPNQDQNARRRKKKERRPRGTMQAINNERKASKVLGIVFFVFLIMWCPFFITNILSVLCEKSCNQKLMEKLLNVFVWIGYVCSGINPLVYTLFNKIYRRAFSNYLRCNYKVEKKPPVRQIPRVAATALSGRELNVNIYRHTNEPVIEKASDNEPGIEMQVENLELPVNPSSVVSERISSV
# 5-HT2 binding site = 5-HT2 binding site (Homo sapiens, UniProt P28223)
# 5-HT2 binding site, sequence (P28223 whole entry): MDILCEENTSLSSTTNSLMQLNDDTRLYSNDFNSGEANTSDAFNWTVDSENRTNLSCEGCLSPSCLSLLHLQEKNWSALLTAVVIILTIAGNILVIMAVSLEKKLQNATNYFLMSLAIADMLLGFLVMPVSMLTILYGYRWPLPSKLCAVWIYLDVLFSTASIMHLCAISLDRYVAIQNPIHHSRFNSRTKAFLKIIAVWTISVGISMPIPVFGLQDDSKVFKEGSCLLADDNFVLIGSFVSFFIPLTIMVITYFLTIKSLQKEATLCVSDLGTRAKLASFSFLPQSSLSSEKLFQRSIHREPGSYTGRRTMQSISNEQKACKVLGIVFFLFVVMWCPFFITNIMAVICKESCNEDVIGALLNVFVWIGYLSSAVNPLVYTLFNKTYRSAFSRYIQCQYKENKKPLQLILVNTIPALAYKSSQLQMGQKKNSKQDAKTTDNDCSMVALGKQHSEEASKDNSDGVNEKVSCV
# 5-HT1E binding site = 5-HT1E binding site (Homo sapiens, UniProt P28566)
# 5-HT1E binding site, sequence (P28566 whole entry): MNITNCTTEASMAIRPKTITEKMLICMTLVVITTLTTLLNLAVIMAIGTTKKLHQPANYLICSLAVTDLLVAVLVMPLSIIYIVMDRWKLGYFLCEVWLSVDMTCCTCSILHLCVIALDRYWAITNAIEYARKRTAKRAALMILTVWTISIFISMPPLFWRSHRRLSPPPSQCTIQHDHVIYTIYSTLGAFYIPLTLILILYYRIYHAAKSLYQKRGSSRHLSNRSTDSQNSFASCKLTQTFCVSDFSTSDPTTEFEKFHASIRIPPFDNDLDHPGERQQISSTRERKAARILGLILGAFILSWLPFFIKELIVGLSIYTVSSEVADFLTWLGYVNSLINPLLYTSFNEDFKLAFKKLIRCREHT
# 5-HT1D receptor [2] = biological target: T4, 5-HT1D receptor; conditions: forskolin-stimulated adenylyl cyclase, guinea-pig substantia nigra
# T4 construct: rows headed: efficacy compared to 5-HT; other: forskolin-stimulated adenylyl cyclase, guinea-pig substantia nigra
# 5-HT1D receptor [3] = conditions: K+-evoked [3H]-5-HT release, guinea-pig frontal cortex slices
# 5-HT1D receptor [4] = conditions: for potency (pD2 range): rabbit saphenous vein rings
# human coronary artery = conditions: for effectiveness in causing contraction of human isolated coronary artery: endothelium-denuded segments, in vitro
# 5-HT1 receptor = biological target: T5, 5-HT1 receptor (Cricetulus griseus, UniProt P46636); conditions: luciferase expression, CHO cells
# T5 construct: These CHO cells are screened for endogenous G protein-coupled receptors; endogenous in cells; host or cells: CHO cells with a cAMP-responsive luciferase reporter
# T5 sequence (P46636 whole entry): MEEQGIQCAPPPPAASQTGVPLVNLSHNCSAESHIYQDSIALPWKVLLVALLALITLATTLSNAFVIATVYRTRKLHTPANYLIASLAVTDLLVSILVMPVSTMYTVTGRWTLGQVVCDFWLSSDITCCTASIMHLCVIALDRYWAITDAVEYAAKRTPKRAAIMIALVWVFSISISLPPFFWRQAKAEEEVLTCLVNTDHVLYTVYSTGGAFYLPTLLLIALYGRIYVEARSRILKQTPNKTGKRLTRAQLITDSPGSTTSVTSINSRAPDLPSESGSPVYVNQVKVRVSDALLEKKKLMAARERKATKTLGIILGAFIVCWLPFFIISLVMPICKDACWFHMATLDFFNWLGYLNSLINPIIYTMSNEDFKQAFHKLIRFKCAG
# AT1 receptor = biological target: T6, AT1 receptor (Homo sapiens, UniProt P30556)
# T6 sequence (P30556 1-359): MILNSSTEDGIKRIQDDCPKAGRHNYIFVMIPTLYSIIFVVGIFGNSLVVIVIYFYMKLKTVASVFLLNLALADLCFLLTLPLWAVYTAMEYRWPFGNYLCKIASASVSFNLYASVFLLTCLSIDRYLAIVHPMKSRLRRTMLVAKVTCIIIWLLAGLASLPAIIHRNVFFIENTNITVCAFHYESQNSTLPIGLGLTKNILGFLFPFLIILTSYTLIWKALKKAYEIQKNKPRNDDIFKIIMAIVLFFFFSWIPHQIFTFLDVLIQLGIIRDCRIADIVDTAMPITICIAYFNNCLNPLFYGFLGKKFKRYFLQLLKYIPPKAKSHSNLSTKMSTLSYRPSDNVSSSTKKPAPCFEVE
# 5-HT1F receptors = biological target: T7, 5-HT1F receptors (Homo sapiens, UniProt P30939)
# T7 construct: expressed in transfected cells; host or cells: NIH-3T3 cells
# T7 sequence (P30939 1-366): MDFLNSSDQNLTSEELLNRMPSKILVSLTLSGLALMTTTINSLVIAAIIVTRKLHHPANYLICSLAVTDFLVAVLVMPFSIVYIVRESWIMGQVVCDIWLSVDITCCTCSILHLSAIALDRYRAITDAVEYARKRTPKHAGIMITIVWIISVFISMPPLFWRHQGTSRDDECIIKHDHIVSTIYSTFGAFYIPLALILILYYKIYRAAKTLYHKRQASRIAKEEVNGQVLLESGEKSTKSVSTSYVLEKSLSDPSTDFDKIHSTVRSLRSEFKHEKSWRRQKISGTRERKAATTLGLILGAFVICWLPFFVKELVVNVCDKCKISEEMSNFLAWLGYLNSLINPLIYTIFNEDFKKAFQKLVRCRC
# [5] = test system: cholinergic receptors on bronchial smooth muscle
compound,measurement,setting,value
CCCCc1nc(Cl)c(CO)n1Cc1ccc(-c2ccccc2-c2nn[nH]n2)cc1 [losartan],affinity,AT2 receptor,low affinity
same,inhibition of specific binding of 125I-angiotensin II,[1],inhibits the specific binding
Cc1ccc(C(=O)Oc2ccc(C(O)CNC(C)(C)C)cc2OC(=O)c2ccc(C)cc2)cc1 (centres unmarked) [bitolterol],duration of effect after inhalation,β2-adrenergic receptor,3 to 6 h
"c1ccc2c(c1)CC[C@H](CNCCCNC1=NCCCN1)O2 [alniditan, (−)—(R)-N-[3,4-dihydro-2H-1-benzopyran-2-ylmethyl-N′-(1,4,5,6-tetrahydro-2-pyrimidinyl)-1,3-propanediaminedihydrochloride]",potency compared with sumatriptan,5-HT1-like receptor; anesthetized dogs,higher
same,common carotid arterial blood flow,"5-HT1-like receptor; anesthetized dogs, 0.63-80 μg/kg i.v.",reduces common carotid arterial blood flow
same,effect on other cardiovascular variables,"5-HT1-like receptor; coronary, mesenteric and renal arterial blood flow, vascular and airway resistance",comparatively little effect
CN(C)CCc1c[nH]c2ccc(C[C@H]3COC(=O)N3)cc12 [Zolmitriptan],neuropeptide release,neuropeptide release,reduces neuropeptide release
"CS(=O)(=O)Nc1ccc(Cc2noc(-c3ccc4[nH]cc(CCN)c4c3)n2)cc1 [L-694,247]",affinity (pIC50),5-HT1D binding site,10.03
same,affinity (pIC50),5-HT1B binding site,9.08
same,pIC50,5-HT1A binding site,8.64
same,pIC50,5-HT1C binding site,6.42
same,pIC50,5-HT2 binding site,6.50
same,pIC50,5-HT1E binding site,5.66
same,pEC50,5-HT1D receptor [2],9.1
same,pEC50,5-HT1D receptor [3],9.4
CNS(=O)(=O)Cc1ccc2[nH]cc(CCN(C)C)c2c1 [sumatriptan],affinity (pIC50),5-HT1D binding site,8.22
same,"efficacy, maximal contractile response (Emax)",5-HT1D receptor [4]; compared to 5-HT and 5-CT,significantly greater
same,effectiveness in causing contraction of human isolated coronary artery,human coronary artery,significantly less efficacious than 5-HT
CC(Cc1ccc(O)cc1)NCC(O)c1cc(O)cc(O)c1 (centres unmarked) [Fenoterol],duration of action,β2-adrenergic receptor,2 to 3 h
same,onset of action (in words),β2-adrenergic receptor,rapid onset
O=C(c1ccc(F)cc1)C1CCN(CCn2c(=O)[nH]c3ccccc3c2=O)CC1 [ketanserin],reversal of the response to 5-HT,5-HT1 receptor,not
angiotensin II,selectivity for the AT subtypes,AT1 receptor; AT1 vs AT2,no selectivity
CN(C)CCc1c[nH]c2ccc(Cn3cncn3)cc12 [rizatriptan],maximum contractile response,human coronary artery; compared with sumatriptan,lower maximum contractile response
same,effectiveness in causing contraction of human isolated coronary artery,human coronary artery,less effective than sumatriptan
same,effectiveness in causing contraction of human isolated coronary artery,human coronary artery; listed as MK462,significantly less efficacious than 5-HT
same,effectiveness in causing contraction of human isolated coronary artery,human coronary artery; listed as MK-462,significantly less effective than sumatriptan
CC(C)NCC(O)c1cc(O)cc(O)c1 (centres unmarked) [Metaproterenol],onset of action (in words),β2-adrenergic receptor,within minutes
same,duration of effect after inhalation,β2-adrenergic receptor,several hours
same,duration of effects after oral administration,β2-adrenergic receptor; oral,3 to 4 h
CC(C)(C)NCC(O)COc1cccc2[nH]c(C#N)cc12 (centres unmarked) [cyanopindolol],reversal of the response to 5-HT,5-HT1 receptor,reversed
CC(C)NCC(O)COc1cccc2[nH]ccc12 (centres unmarked) [pindolol],reversal of the response to 5-HT,5-HT1 receptor,reversed
Cc1cc(Cn2cnc3c2CC(C(=O)O)N(C(=O)C(c2ccccc2)c2ccccc2)C3)ccc1N (centres unmarked) [PD 123177],affinity,AT1 receptor; AT1 receptor,low affinity
NCCc1c[nH]c2ccc(O)cc12 [Example 5-HT],receptor reserve,5-HT1F receptors; 5-HT-induced inhibition of FSCA,90%
same,receptor occupancy required for half-maximal response,5-HT1F receptors; NIH-3T3 cells,about 10%
same,potency (pD2 range),5-HT1D receptor [4],6.2-7.1
CCC(NC(C)C)C(O)c1ccc(O)c2[nH]c(=O)ccc12 (centres unmarked) [Procaterol],duration of action,β2-adrenergic receptor,about 5 hours
same,onset of action (in words),β2-adrenergic receptor,rapid onset of action
"NCCc1c[nH]c2ccc(C(N)=O)cc12 [Example 5-CT, 5-carboxamidotryptamine]",potency (pD2 range),5-HT1D receptor [4],7.2-7.6
CC(C)[N+]1(C)[C@@H]2CC[C@H]1C[C@@H](OC(=O)C(CO)c1ccccc1)C2 (some centres unmarked) [Ipratropium],persistence of significant effects,[5]; after inhalation,more than 4 hours
same,time over which maximal responses develop,[5]; after inhalation,30 to 90 min
same,duration of useful response,[5]; some asthmatic patients,up to 6 hours
